Reference: BindingDB's records for doi:10.1021/jm00046a020 (Purdue University, 1994)
pIC50: −log10 of the molar value.

Molecular target: Tyrosine-protein kinase transforming protein Src (Rous sarcoma virus)
Assay: Inhibition of in vitro protein-tyrosine kinase activity of p60v-src enzyme in presence of 5 uM ATP.

| SMILES | pIC50 |
| --- | --- |
| Nc1cccc(-c2cc(=O)c3c(N)c(O)c(N)cc3o2)c1 [5,7-Diamino-2-(3-amino-phenyl)-6-hydroxy-chromen-4-one] | 4.42 |
| Nc1ccc(-c2cc(=O)c3c(N)c(O)c(N)cc3o2)cc1 [5,7-Diamino-2-(4-amino-phenyl)-6-hydroxy-chromen-4-one] | < 4.30 |
| Nc1ccc(-c2cc(=O)c3cc(N)c(O)c(N)c3o2)cc1 [6,8-Diamino-2-(4-amino-phenyl)-7-hydroxy-chromen-4-one] | < 4.30 |
| Nc1ccc(-c2cc(=O)c3cc(N)cc(N)c3o2)cc1 [6,8-Diamino-2-(4-amino-phenyl)-chromen-4-one] | < 4.30 |
| Nc1cccc(-c2cc(=O)c3cc(N)c(O)cc3o2)c1 [6-Amino-2-(3-amino-phenyl)-7-hydroxy-chromen-4-one] | < 4.30 |
| Nc1cccc(-c2cc(=O)c3cc(N)ccc3o2)c1 [6-Amino-2-(3-amino-phenyl)-chromen-4-one] | < 4.30 |
| Nc1ccc(-c2cc(O)c3c(=O)c(N)ccc-3o2)cc1 [6-Amino-2-(4-amino-phenyl)-5-hydroxy-chromen-4-one] | < 4.30 |
| Nc1ccc(-c2cc(=O)c3cc(N)c(O)cc3o2)cc1 [6-Amino-2-(4-amino-phenyl)-7-hydroxy-chromen-4-one] | < 4.30 |
| Nc1ccc(-c2cc(=O)c3cc(N)ccc3o2)cc1 [6-Amino-2-(4-amino-phenyl)-chromen-4-one] | 4.54 |
| Nc1ccc(-c2cc(=O)c3c(O)ccc(N)c3o2)cc1 [8-Amino-2-(4-amino-phenyl)-5-hydroxy-chromen-4-one] | < 4.30 |
| Nc1ccc(-c2cc(=O)c3cc(O)cc(N)c3o2)cc1 [8-Amino-2-(4-amino-phenyl)-6-hydroxy-chromen-4-one] | < 4.30 |
| COc1cc(N)c2oc(-c3ccc(N)cc3)cc(=O)c2c1 [8-Amino-2-(4-amino-phenyl)-6-methoxy-chromen-4-one] | < 4.30 |
| Nc1ccc(-c2cc(=O)c3ccc(O)c(N)c3o2)cc1 [8-Amino-2-(4-amino-phenyl)-7-hydroxy-chromen-4-one] | < 4.30 |
| Nc1ccc(-c2cc(=O)c3cccc(N)c3o2)cc1 [8-Amino-2-(4-amino-phenyl)-chromen-4-one] | < 4.30 |
